For series [1], the system named is basal gastric acid secretion in rats. Kind of series: Inhibitory test of basal gastric acid secretion in pylorus-ligated rats after intragastric administration. The format is in vivo, SD rats. Conditions: for Inhibitory rate (basal gastric acid secretion) / Amount of gastric juice / Total acid amount of the gastric juice: n = 10; for Amount of gastric juice: pylorus ligation 1 h after administration, gastric juice collected after 4 h; for Amount of gastric juice / Total acid amount of the gastric juice: X ± S; for Total acid amount of the gastric juice: titration with 0.01 mol/L NaOH; for Effect on the total acid amount of the gastric juice as compared with the model control group: I-1a 2 mg/kg and 1 mg/kg, vonoprazan fumarate 2 mg/kg, P<0.05 or P<0.01. The text has this:
An equal amount of deuterated vonoprazan fumarate derivatives I-1a, I-2a, I-3a and I-4a prepared and obtained in the Examples and vonoprazan fumarate (vonoprazan was 1-[5-(2-fluorophenyl)-1-(pyridin-3-yl-sulfonyl)-1H-pyrrol-3-yl]-N-methylmethanamine) were taken respectively and subjected to the inhibitory activity test on gastric acid secretion in rats.
SD rats which were SPF grade and weighed 180 to 200 g were selected and used in this experiment. The rats were grouped randomly with 10 rats in each group (half male and half female). Animals were fasted but free to access water for 16 hours. 1 hour after administration, the animals were anesthetized with isoflurane and fixed in a supine position. The abdomen was shaved and disinfected routinely. A 1.5 cm incision was made along the midline and below the xiphoid, the stomach was taken gently, the gastric pylorus was ligated with surgical suture at the junction of the stomach pylorus and the duodenum, and the incision was sutured. The animals were fasted and water-deprived after the surgery. After 4 hours, the animals were anesthetized by intra-abdominally injecting 1% sodium pentobarbital. The incision was opened, and the gastric cardia was ligated. The stomach was taken out and cut open along the greater curvature of stomach. The gastric juice was collected and centrifuged at 3000 rpm for 10 minutes. The supernatant was aspirated and the volume of the gastric juice was measured. 0.5 mL of the gastric juice was taken and placed in a small conical flask, a drop of phenolphthalein indicator was added, and the mixture was titrated with 0.01 mol/L sodium hydroxide until the red color appeared (the color was no longer deepened) as the endpoint. The total amount of gastric acid was calculated according to the following formula. The average secretion amount of the gastric juice and the total acid amount of the gastric juice of each administered group and the model control group were subjected to statistical tests.
The inhibitory test of basal gastric acid secretion in rats was carried out after intragastric administration of the vonoprazan fumarate derivatives and vonoprazan fumarate, and the results were as shown in Table 1 and FIG. 1. […] The inhibitory effects of the vonoprazan fumarate derivative (Compound I-1a) with a dosage of 2 mg/kg on the secretion amount of gastric juice and the total acid amount of the gastric juice in rats were stronger than that of the same dosage (2 mg/kg) of vonoprazan fumarate, and there was a significant difference between the two (P<0.05). As compared with vonoprazan fumarate, the vonoprazan fumarate derivatives had stronger inhibitory effect on the gastric acid secretion in rats at the same dosage.

A short description of series [2]: Pharmacokinetic experiment in rats after single intragastric administration (plasma LC-MS/MS). It is filed as in vivo. Conditions: both sexes, SD, rat, po, 2 mg/kg intragastric; for AUC(0-inf) / Cmax / Tmax / half-life: n = 6; for bioavailability: n = 6, read-out: F (absolute bioavailability); for AUC(0-t): 2 mg/kg. Here is the method:
An equal amount of Compound I-1a (1-[5-(2-fluorophenyl)-1-(pyridin-3-yl-sulfonyl)-1H-pyrrol-3-yl]-N-methyldideuteromethanamine fumarate) prepared and obtained in the Example and vonoprazan fumarate were taken respectively and subjected to a pharmacokinetic experiment.
Drug formulating manner: 16 mg of the drug (the vonoprazan fumarate derivatives or vonoprazan fumarate) was weighed and taken, and dissolved in 2 mL of N-methylpyrrolidone. 38 mL of 5% glucose injection was further added thereto to prepare a dosing solution with a concentration of 0.4 mg/mL and the dosing solution was administered by intragastric administration.
Intragastric administration: 6 SD rats (half male and half female) were taken and orally administered as a single dose (2 mg/kg). Blood samples was collected after administration, and the time points of blood collection were 0.083 hours, 0.25 hours, 0.5 hours, 1 hour, 2 hours, 3 hours, 4 hours, 6 hours, 8 hours, 12 hours, 24 hours, 36 hours, and 48 hours after the administration.
Sample collection: 200 μL of whole blood was taken at each time point of blood collection, heparin was added for anticoagulation, and the mixture was centrifuged at 12000 rpm for 5 min at 4° C. 50 μL of the plasma was taken and placed in a polypropylene tube, and the rest was used for backup and stored at −20° C. to be tested.
Plasma treatment method: To 50 μL of rat plasma anticoagulated by heparin, 50 μL of methanol and […], of a solution of the internal standard etofesalamide in methanol (10 ng/mL) were added. The mixture was vortexed for 1 min and centrifuged at 12000 rpm for 10 min at 4° C. 100 μL of the supernatant was taken and placed in a vial insert, and 1 μL of the supernatant was injected for LC-MS/MS analysis.
The pharmacokinetic parameters were calculated by non-compartment model statistical moment method using WinNonlin 6.3 software.

The mark [3] stands for this setting: mean, n = 6, read-out: AUC0-6 h.

Where a name gives a salt, the structure may show the parent alone. Read-outs that look alike come from different tables or passages of the source. Marks after values point to notes of the source that are not given here.

Take `O=C(O)/C=C/C(=O)O.[2H]C([2H])(NC)c1cc(-c2ccccc2F)n(S(=O)(=O)c2cccnc2)c1` [Compound I-1a, 1-[5-(2-fluorophenyl)-1-(pyridin-3-yl-sulfonyl)-1H-pyrrol-3-yl]-N-methyldideuteromethanamine fumarate]: in series [1] (1 mg/kg intragastric), the “Inhibitory rate (basal gastric acid secretion)” value (from here on “Inhibitory rate”) amounted to 52.7%, the “Amount of gastric juice” value is 2.6 ± 0.8 mL and the “Total acid amount of the gastric juice” value came out at 153.3 ± 85.9 µmol. In addition, in series [1] (2 mg/kg intragastric), the “Inhibitory rate” value worked out at 95.3%, the “Amount of gastric juice” value is on record as 1.8 ± 0.9**^Δ mL and the “Total acid amount of the gastric juice” value is listed as 15.3 ± 12.9***^Δ μmol. Further, the “Effect on the secretion amount of gastric juice as compared with the model control group” value in series [1] (2 mg/kg, P<0.01) was “significant inhibitory effect”. Moreover, the “Inhibitory effects on secretion amount and total acid amount of gastric juice compared with same dosage of vonoprazan fumarate” value in series [1] (2 mg/kg, P<0.05) is reported as “stronger”. In addition, the “Effect on the total acid amount of the gastric juice as compared with the model control group” value in series [1] is recorded as “significant inhibitory effect”.
As for `O=C(O)/C=C/C(=O)O.[2H]c1nc([2H])c(S(=O)(=O)n2cc(C([2H])([2H])NC([2H])([2H])[2H])cc2-c2ccccc2F)c([2H])c1[2H]` [Compound I-4a, 1-[5-(2-fluorophenyl)-1-(tetradeuteropyridin-3-yl-sulfonyl)-1H-pyrrol-3-yl]-N-trideuteromethyldideuteromethanamine fumarate], in series [1] (2 mg/kg intragastric), the “Inhibitory rate” value was 97.4%.
For the compound `O=C(O)/C=C/C(=O)O.[2H]C([2H])([2H])NC([2H])([2H])c1cc(-c2ccccc2F)n(S(=O)(=O)c2cccnc2)c1` [Compound I-2a, 1-[5-(2-fluorophenyl)-1-(pyridin-3-yl-sulfonyl)-1H-pyrrol-3-yl]-N-trideuteromethyldideuteromethanamine fumarate], the “Inhibitory rate” value in series [1] (2 mg/kg intragastric) amounted to 95.5%.
`CNCc1cc(-c2ccccc2F)n(S(=O)(=O)c2cccnc2)c1` [TAK-438, 1-[5-(2-fluorophenyl)-1-(pyridin-3-yl-sulfonyl)-1H-pyrrol-3-yl]-N-methylmethanamine, reference compound]: in series [2] (mean), the total exposure AUC(0-inf) worked out at 45 ng·h/mL, the peak concentration (Cmax) is 67.3 ng/mL, the Tmax was determined as 15 min and the half-life was 47.8 min. The bioavailability in series [2] was determined as 33.5%. Also, in series [2] (setting [3]), the AUC(0-t) came out at 44.6 ng·h/mL. Moreover, the AUC(0-t) in series [2] (read-out: AUC0-t in the plasma) is 45 ng·h/mL.
With `[2H]C([2H])(NC)c1cc(-c2ccccc2F)n(S(=O)(=O)c2cccnc2)c1` [TAK-438d2, 1-[5-(2-fluorophenyl)-1-(pyridin-3-yl-sulfonyl)-1H-pyrrol-3-yl]-N-methyldideuteromethanamine], in series [2] (mean), the total exposure AUC(0-inf) turned out to be 56.4 ng·h/mL, the concentration peaked (Cmax) at 74.9 ng/mL, the Tmax came to 15 min and the half-life is 57.7 min. In addition, the bioavailability in series [2] was 42.9%. In series [2] (setting [3]), the AUC(0-t) was found to be 56.2 ng·h/mL. Moreover, the AUC(0-t) in series [2] (read-out: AUC0-t in the plasma) is 56.4 ng·h/mL.
As for `CNCc1cc(-c2ccccc2F)n(S(=O)(=O)c2cccnc2)c1` [vonoprazan fumarate, reference compound], in series [1] (1 mg/kg intragastric), the “Inhibitory rate” value is recorded as 43.1%, the “Amount of gastric juice” value came to 3.1 ± 1.2 mL and the “Total acid amount of the gastric juice” value is 184.2 ± 83.4 µmol. Besides, in series [1] (2 mg/kg intragastric), the “Inhibitory rate” value worked out at 73.8%, the “Amount of gastric juice” value came out at 3.0 ± 1.3 mL and the “Total acid amount of the gastric juice” value turned out to be 84.9 ± 83.2 µmol. Also, the “Effect on the total acid amount of the gastric juice as compared with the model control group” value in series [1] is on record as “significant inhibitory effect”.

These data come from patent US10912769B2, “1-[(pyridin-3-yl-sulfonyl)-1H-pyrrol-3-yl] methanamine derivative and pharmaceutical composition and use thereof” (Jiangsu Jibeier Pharmaceutical Co. Ltd., priority 2016, dated 2021).
